In patent publication US20230295140A1, “INHIBITORS OF VAP-1” (Acucela Inc., priority 2021, published 2023):

Key:
Assay type in all cases: biochemical
rhVAP-1 = rhVAP-1 (Homo sapiens (Human), UniProt Q16853); experiment: VAP-1 fluorometric assay (Amplex Red/HRP, benzylamine substrate); details: class symbols, ranges defined in μM
Protocol: The capability of compounds described herein to inhibit the enzymatic activity of vascular adhesion protein-1 (VAP-1) was determined by fluorometric assay. The assay procedure provided by R&D Systems was modified slightly for use as an inhibitor screening assay. The assay measured the H2O2 generated from the oxidative deamination of benzylamine by rhVAP-1 by converting Amplex® Red to the fluorescent product, resorufin, via horseradish peroxidase (HRP) and H2O2. Reaction buffer was 10 mM NaHCO3, pH 7.4. A standard curve was prepared by serially diluting H2O2 in reaction buffer. A 10 μM solution of resorufin was prepared in reaction buffer and was dispensed to 2 wells. These wells served as positive control for maximum fluorescence. Reaction buffer was added to the individual wells so that the final volume in each well was 100 μL. Amplex Red was diluted to 1 mM in reaction buffer. A 10 U stock of HRP was prepared in reaction buffer. A reaction cocktail was prepared by mixing equal parts 1 mM Amplex Red with 10 U HRP with 3 parts reaction buffers. The reaction cocktail was added to the appropriate wells, so that that final concentration in the well was 0.05 mM Amplex Red and 0.5 U HRP. A 200 μM solution of benzylamine was prepared in reaction buffer. Benzylamine was added to the appropriate wells so that the final concentration was 50 μM. Inhibitors were diluted in DMSO to 20× and distributed to the appropriate wells. LJP-1207 served a positive control. rhVAP-1 was purchased from R&D Systems. The concentration used for each lot was determined so that the activity was equal to the first lot. Two wells were left blank as controls. The plate was incubated for 30 minutes at 37° C., protected from light under foil. The plate was read at 530/35 emission and 590/35 excitation. Data processing was performed using Excel and Prism software.
The capability of compounds described herein to inhibit the enzymatic activity of vascular adhesion protein-1 (VAP-1) was determined by fluorometric assay. The assay procedure provided by R&D Systems was modified slightly for use as an inhibitor screening assay. The assay measured the H2O2 generated from the oxidative deamination of benzylamine by rhVAP-1 by converting Amplex® Red to the fluorescent product, resorufin, via horseradish peroxidase (HRP) and H2O2. Amplex Red, HRP, Benzylamine, inhibitors (with DMSO as vehicle, 0.5% v/v) and rhVAP-1 were added to the wells. Assay was conducted in 10 mM NaHCO3, pH 7.4. A standard curve was prepared by serially diluting H2O2 in reaction buffer. The plate was incubated for 30 minutes at 37° C., protected from light under foil. The plate was read at 530/35 emission and 590/35 excitation. Data processing was performed using Prism software.

rhMAO-A = rhMAO-A (Homo sapiens (Human), UniProt P21397); experiment: MAO-Glo assay, MAO-A inhibition
Protocol: (§1) The capability of compounds described herein to inhibit MAO was determined using a modified Promega MAO-Glo™ assay kit. The substrate ((4S)-4,5-dihydro-2-(6-hydroxybenzothiazolyl)-4-thiazolecarboxylic acid) was converted by MAO to produce methyl ester luciferin. The luciferin was then converted by luciferase to produce oxyluciferin and light. The light was measured using a luminescence setting on the plate reader. A standard curve was prepared by serially diluting luciferin in reaction buffer. The standard kit reaction buffer was used—100 mM HEPES (pH 7.5), 5% glycerol. The substrate was dispensed into the wells so that the final concentration for MAO-A inhibition assay would be 10 μM and MAO-B inhibition assay would be […]. Inhibitors were diluted in DMSO to 4× and distributed to the appropriate wells. Clorgyline and Deprenyl served as positive controls. rhMAO-A and rhMAO-B were purchased from Sigma. MAO-A or MAO-B was added to the appropriate wells. The plate was incubated for 1 hour, at room temperature with gentle shaking (90 rpm). The detection agent was added at equal volume (48 μL detection agent to 48 μL reaction). The plate was incubated for 20 minutes, at room temperature with gentle shaking (90 rpm). The plate luminescence was read. Data processing was performed using Prism software.
(§2) The capability of compounds described herein to inhibit MAO was determined using a modified Promega MAO-Glo™ assay. Test compounds, substrate and enzyme were incubated per manufacturer instructions for 1 hour, at room temperature with gentle shaking (90 rpm) before addition of detection agent. The detection agent was added at equal volume (48 μL detection agent to 48 μL reaction). The plate was incubated for 20 minutes, at room temperature with gentle shaking (90 rpm). The plate luminescence was read. Data processing was performed using Prism software.

rhMAO-B = rhMAO-B (Homo sapiens (Human), UniProt P27338); experiment: MAO-Glo assay, MAO-B inhibition
Protocol: as §1, §2

[1] = class symbols, ranges defined in μM

rhMAO-A, sequence (P21397 whole entry): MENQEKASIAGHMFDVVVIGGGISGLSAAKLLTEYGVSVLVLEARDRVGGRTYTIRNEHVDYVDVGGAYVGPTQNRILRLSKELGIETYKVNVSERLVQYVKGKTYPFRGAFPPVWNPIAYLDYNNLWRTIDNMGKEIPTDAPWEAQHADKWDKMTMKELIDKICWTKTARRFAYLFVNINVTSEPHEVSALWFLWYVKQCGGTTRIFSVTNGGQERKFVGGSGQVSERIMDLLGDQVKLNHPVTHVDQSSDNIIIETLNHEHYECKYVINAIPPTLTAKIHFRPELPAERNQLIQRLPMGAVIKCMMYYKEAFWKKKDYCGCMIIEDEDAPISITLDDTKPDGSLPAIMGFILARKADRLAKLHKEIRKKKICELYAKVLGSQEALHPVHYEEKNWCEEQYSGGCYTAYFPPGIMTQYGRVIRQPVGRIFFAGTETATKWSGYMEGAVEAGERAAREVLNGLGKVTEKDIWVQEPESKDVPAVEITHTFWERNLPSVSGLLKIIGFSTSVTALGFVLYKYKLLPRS
rhVAP-1, sequence (Q16853 whole entry): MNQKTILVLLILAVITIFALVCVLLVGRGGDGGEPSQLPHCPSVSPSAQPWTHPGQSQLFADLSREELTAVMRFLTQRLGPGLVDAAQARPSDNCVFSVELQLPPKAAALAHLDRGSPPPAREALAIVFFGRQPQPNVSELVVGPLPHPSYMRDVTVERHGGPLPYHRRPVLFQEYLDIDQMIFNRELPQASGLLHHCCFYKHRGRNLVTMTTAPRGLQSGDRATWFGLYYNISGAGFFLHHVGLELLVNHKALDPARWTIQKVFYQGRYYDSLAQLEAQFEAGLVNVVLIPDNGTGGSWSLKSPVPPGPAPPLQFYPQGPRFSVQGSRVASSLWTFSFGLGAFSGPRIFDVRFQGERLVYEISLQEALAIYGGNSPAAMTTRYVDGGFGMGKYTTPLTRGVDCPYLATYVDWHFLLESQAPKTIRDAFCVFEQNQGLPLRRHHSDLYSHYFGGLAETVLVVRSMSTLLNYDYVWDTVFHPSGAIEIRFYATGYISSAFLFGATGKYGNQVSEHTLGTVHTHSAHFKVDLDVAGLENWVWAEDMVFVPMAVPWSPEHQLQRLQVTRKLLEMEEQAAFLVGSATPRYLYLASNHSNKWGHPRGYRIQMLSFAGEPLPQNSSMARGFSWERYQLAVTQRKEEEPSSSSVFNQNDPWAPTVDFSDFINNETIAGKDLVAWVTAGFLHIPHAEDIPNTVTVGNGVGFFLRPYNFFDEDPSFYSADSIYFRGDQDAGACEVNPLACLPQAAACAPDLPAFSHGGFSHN
rhMAO-B, sequence (P27338 whole entry): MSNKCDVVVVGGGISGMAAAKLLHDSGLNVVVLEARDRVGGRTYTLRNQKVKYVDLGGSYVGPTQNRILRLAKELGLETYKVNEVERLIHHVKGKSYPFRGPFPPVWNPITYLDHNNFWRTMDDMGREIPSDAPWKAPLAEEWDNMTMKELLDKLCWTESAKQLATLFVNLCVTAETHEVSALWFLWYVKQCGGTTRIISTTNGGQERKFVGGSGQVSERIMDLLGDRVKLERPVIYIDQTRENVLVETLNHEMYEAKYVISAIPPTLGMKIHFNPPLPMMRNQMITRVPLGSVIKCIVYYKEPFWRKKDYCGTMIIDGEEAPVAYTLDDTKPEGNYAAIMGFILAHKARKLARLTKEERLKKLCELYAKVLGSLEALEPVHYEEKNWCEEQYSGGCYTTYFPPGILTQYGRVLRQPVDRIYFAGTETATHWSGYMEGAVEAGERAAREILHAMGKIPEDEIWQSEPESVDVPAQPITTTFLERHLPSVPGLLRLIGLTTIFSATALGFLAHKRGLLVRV

| Structure (SMILES) | IC50 (rhVAP-1) [µM] | IC50 (rhMAO-A; bound printed in cell) [µM] | IC50 (rhMAO-B; [1]) [µM] | IC50 (rhMAO-A; [1]) [µM] | IC50 (rhMAO-B; bound printed in cell) [µM] |
| --- | --- | --- | --- | --- | --- |
| NC/C(=C/F)COc1ccc2nc(NCc3cccnc3)oc2c1 [Example 58, (Z)-6-((2-(aminomethyl)-3-fluoroallyl)oxy)-N-(pyridin-3-ylmethyl)benzo[d]oxazol-2-amine bis(4-methylbenzenesulfonate)] | 1 to 10 | > 50 | 1 to 10 | – | – |
| CC(C)(C)CCCc1nc2ccc(OC/C(=C/F)CN)cc2o1 [Example 51, (E)-2-(((2-(4,4-dimethylpentyl)benzo[d]oxazol-6-yl)oxy)methyl)-3-fluoroprop-2-en-1-amine 4-methylbenzenesulfonate] | < 0.1 | – | 0.1 to 1 | 1 to 10 | – |
| NC/C(=C/F)COc1ccc2nc(NCc3ccncc3)oc2c1 [Example 94, (Z)-6-((2-(aminomethyl)-3-fluoroallyl)oxy)-N-(pyridin-4-ylmethyl)benzo[d]oxazol-2-amine 4-methylbenzenesulfonate] | < 0.1 | > 50 | 0.1 to 1 | – | – |
| COc1cccc(CNc2nc3ccc(OC/C(=C/F)CN)cc3o2)c1 [Example 25, (E)-6-((2-(aminomethyl)-3-fluoroallyl)oxy)-N-(3-methoxybenzyl)benzo[d]oxazol-2-amine 4-methylbenzenesulfonate] | < 0.1 | – | 0.1 to 1 | 1 to 10 | – |
| CCCCn1cnc2cc(OC/C(=C/F)CN)ccc21 [Example 89, (E)-2-(((1-butyl-1H-benzo[d]imidazol-5-yl)oxy)methyl)-3-fluoroprop-2-en-1-amine 4-methylbenzenesulfonate] | < 0.1 | > 50 | 1 to 10 | – | – |
| CCCCc1nc2ccc(C/C(=C/F)CN)cc2o1 [Example 31, (Z)-2-((2-butylbenzo[d]oxazol-6-yl)methyl)-3-fluoroprop-2-en-1-amine] | < 0.1 | – | 1 to 10 | 10 to 30 | – |
| CCCCc1nc2ccc(SC/C(=C/F)CN)cc2o1 [Example 22, (E)-2-(((2-butylbenzo[d]oxazol-6-yl)thio)methyl)-3-fluoroprop-2-en-1-amine 4-methylbenzenesulfonate] | < 0.1 | – | 0.1 to 1 | 10 to 30 | – |
| NC/C(=C\F)COc1ccc2nc(N3CCS(=O)(=O)CC3)oc2c1 [Example 90, (E)-4-(6-((2-(aminomethyl)-3-fluoroallyl)oxy)benzo[d]oxazol-2-yl)thiomorpholine 1,1-dioxide 4-methylbenzenesulfonate] | < 0.1 | > 50 | 1 to 10 | – | – |
| CNC(=O)[C@@H](Cc1ccccc1)Nc1nc2ccc(OC/C(=C\F)CN)cc2o1 [Example 80, (R,Z)-2-((6-((2-(aminomethyl)-3-fluoroallyl)oxy)benzo[d]oxazol-2-yl)amino)-N-methyl-3-phenylpropanamide 4-methylbenzenesulfonate] | < 0.1 | > 40 | – | – | > 40 |
| NC/C(=C\F)COc1ccc2nc(NCc3ccncc3)oc2c1 [Example 23, (E)-6-((2-(aminomethyl)-3-fluoroallyl)oxy)-N-(pyridin-4-ylmethyl)benzo[d]oxazol-2-amine 4-methylbenzenesulfonate] | < 0.1 | – | 1 to 10 | 10 to 30 | – |
| CCCNc1nc2ccc(OC/C(=C\F)CN)cc2s1 [Example 12, (Z)-6-((2-(aminomethyl)-3-fluoroallyl)oxy)-N-propylbenzo[d]thiazol-2-amine 4-methylbenzenesulfonate] | < 0.1 | – | 1 to 10 | 1 to 10 | – |
| CNC(=O)CN(Cc1ccccc1)c1nc2ccc(OC/C(=C/F)CN)cc2o1 [Example 53, (E)-2-((6-((2-(aminomethyl)-3-fluoroallyl)oxy)benzo[d]oxazol-2-yl)(benzyl)amino)-N-methylacetamide 4-methylbenzenesulfonate] | < 0.1 | > 50 | – | – | > 50 |
